From paper PMC7818505 (Journal of Clinical Pharmacology, 2020)

Tests used:
CYP2C9 = CYP2C9 (Homo sapiens, UniProt P11712); conditions: background statement; cited from earlier work
CYP2C8 = target: T1, CYP2C8 (Homo sapiens, UniProt P10632); assay: Phase 1 clinical DDI study, pioglitazone probe with or without relacorilant; type: in vivo
T1 sequence (P10632 1-490): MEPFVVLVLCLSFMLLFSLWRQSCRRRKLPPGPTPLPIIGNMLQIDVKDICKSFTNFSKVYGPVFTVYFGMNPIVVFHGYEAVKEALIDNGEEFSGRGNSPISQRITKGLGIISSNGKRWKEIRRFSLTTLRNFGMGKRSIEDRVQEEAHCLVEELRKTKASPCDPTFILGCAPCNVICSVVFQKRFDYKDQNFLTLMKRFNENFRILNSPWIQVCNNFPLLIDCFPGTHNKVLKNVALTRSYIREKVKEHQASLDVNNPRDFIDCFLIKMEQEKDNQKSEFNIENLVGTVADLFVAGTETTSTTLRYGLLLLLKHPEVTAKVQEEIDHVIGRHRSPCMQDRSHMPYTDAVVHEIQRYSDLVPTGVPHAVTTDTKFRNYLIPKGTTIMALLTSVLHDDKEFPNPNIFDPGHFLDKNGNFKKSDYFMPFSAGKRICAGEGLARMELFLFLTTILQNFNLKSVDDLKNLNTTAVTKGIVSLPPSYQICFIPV

CYP3A4 [1] = assay: Phase 1 clinical DDI study, midazolam probe with or without relacorilant; type: in vivo, human
CYP1A2 messenger RNA = assay: In vitro CYP induction assay, messenger RNA in cryopreserved human hepatocytes; type: in vitro ADME; conditions: 3 donors
CYP2B6 messenger RNA = assay: as above; type: in vitro ADME; conditions: 3 donors
progesterone receptor = conditions: background statement; cited from earlier work
CYP3A4 [2] = target: CYP3A4 (Homo sapiens, UniProt P08684); assay: biochemical
Chain of CYP3A4 (Homo sapiens, UniProt P08684) (P08684 whole entry): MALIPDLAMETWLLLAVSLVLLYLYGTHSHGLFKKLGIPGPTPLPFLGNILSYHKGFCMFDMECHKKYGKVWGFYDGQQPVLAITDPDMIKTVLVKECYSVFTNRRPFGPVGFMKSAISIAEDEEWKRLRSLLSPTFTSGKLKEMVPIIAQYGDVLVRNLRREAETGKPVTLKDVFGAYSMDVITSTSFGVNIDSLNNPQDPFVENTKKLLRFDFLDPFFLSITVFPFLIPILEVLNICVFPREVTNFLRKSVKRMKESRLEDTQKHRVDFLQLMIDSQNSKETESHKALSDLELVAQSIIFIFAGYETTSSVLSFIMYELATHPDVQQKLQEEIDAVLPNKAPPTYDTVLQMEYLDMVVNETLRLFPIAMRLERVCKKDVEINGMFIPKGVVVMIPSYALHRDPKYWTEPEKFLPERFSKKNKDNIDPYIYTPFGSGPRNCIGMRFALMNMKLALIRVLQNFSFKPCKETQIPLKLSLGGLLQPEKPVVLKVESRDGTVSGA

[3] = both, human, plasma, po, 15 mg, probe pioglitazone
[4] = pioglitazone + relacorilant (day 15) compared to pioglitazone alone (day 2)
[5] = pioglitazone + relacorilant (day 15) vs pioglitazone alone (day 2)
[6] = both, human, plasma, po, 2.5 mg, probe midazolam

Chain of CYP2C9 (P11712 whole entry): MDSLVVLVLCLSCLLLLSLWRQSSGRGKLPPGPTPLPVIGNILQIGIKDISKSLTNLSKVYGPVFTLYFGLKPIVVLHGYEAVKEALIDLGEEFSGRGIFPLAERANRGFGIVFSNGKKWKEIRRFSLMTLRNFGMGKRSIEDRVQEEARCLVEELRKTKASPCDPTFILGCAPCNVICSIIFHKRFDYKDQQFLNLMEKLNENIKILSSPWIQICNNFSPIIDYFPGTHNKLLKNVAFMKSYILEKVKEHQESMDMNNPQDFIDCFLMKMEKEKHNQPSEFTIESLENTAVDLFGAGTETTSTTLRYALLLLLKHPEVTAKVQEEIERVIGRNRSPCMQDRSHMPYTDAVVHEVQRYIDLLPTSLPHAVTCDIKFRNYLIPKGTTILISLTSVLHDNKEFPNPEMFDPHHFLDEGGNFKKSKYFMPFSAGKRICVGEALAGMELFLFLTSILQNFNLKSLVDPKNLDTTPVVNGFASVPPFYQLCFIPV

CC#C[C@]1(O)CC[C@H]2[C@@H]3CCC4=CC(=O)CCC4=C3[C@@H](c3ccc(N(C)C)cc3)C[C@@]21C [mifepristone]
CYP2C9 inhibition in vivo (in words) (CYP2C9): inhibits both CYP2C8 and CYP2C9 in vivo

CCc1ccc(CCOc2ccc(CC3SC(=O)NC3=O)cc2)nc1 (centres unmarked) [Pioglitazone, pioglitazone]
AUC(0-inf) (CYP2C8; both, human, plasma, po, 15 mg): 5650 ng·h/mL | AUC(0-t) (CYP2C8; [3]): 5530 ng·h/mL | Cmax (CYP2C8; [3]): 525 ng/mL | Tmax (CYP2C8; [3]): 2 h | half-life (CYP2C8; [3]): 10.4 h | GLSM AUCinf lower with relacorilant than alone, pioglitazone (CYP2C8; [4]): ~25% | GLSM AUClast lower with relacorilant than alone, pioglitazone (CYP2C8; [4]): ~25% | GLSM Cmax lower with relacorilant than alone, pioglitazone (CYP2C8; [4]): approximately 22% | AUCinf GLSM Ratio (90%CI), pioglitazone (CYP2C8; [5]): 0.748 (0.681‐0.822) | AUClast GLSM Ratio (90%CI), pioglitazone (CYP2C8; [5]): 0.747 (0.681‐0.820) | Cmax GLSM Ratio (90%CI), pioglitazone (CYP2C8; [5]): 0.778 (0.697‐0.870)

Cc1ncc2n1-c1ccc(Cl)cc1C(c1ccccc1F)=NC2 [Midazolam, midazolam]
AUC(0-inf) (CYP3A4 [1]; both, human, plasma, po, 2.5 mg): 36.4 ng·h/mL | AUC(0-t) (CYP3A4 [1]; [6]): 34.2 ng·h/mL | Cmax (CYP3A4 [1]; [6]): 12.7 ng/mL

Cn1cc(S(=O)(=O)N2CCC3=Cc4c(cnn4-c4ccc(F)cc4)C[C@]3(C(=O)c3cc(C(F)(F)F)ccn3)C2)cn1 [Relacorilant, (R)‐(1‐(4‐fluorophenyl)‐6‐((1‐methyl‐1H‐pyrazol‐4‐yl)sulfonyl)‐4,4a,5,6,7,8‐hexahydro‐1H‐pyrazolo[3,4‐g]isoquinolin‐4a‐yl)(4‐(trifluoromethyl)pyridin‐2‐yl)methanone]
induction of CYP1A2 (in words) (CYP1A2 messenger RNA): dose‐responsive induction of CYP1A2 was observed in all donors | induction of CYP2B6 (in words) (CYP2B6 messenger RNA): No induction of CYP2B6 was observed in any donor | CYP3A inhibition in vivo (in words) (CYP3A4 [1]; healthy subjects, relacorilant 350 mg once daily, midazolam probe): strong CYP3A inhibitor | affinity for the progesterone receptor (in words) (progesterone receptor): no affinity for the progesterone receptor | IC50 (CYP3A4 [2]): 1320 nM
